Like-named read-outs stand apart in the source and are kept apart here.
Experiments:
[1] = test system: collagen-induced arthritis Dba1 mouse model; assay: Established collagen induced arthritis model (clinical score, histopathology, body weight); type: in vivo; conditions: for reduction of clinical signs of disease (inhibition of disease): established CIA
Procedure: Established Collagen Induced Arthritis Model: Experiments were carried out at Bolder Biopath, Boulder, Colo. All experiments were carried out in compliance with regulations of the Institutional Animal Care and Use Committee and were conducted in accordance with principles and procedures dictated by the highest standards of humane animal care. […] On study days 25-27, onset of arthritis occurred, and mice were randomized into treatment groups (10/treatment group, 4/group for normal). […] Randomization into each group was done after swelling was obviously established in at least one paw, and attempts were made to assure approximately equal mean scores across the groups at the time of enrollment. […] Treatment continued daily (QD at 24 h intervals) through arthritis day 14.

Btk = target: T1, Btk (Mus musculus, UniProt P35991); assay: Btk occupancy in spleen lysates of CIA mice; type: in vivo
T1 construct: from tissue; host or cells: mouse spleen
T1 sequence (P35991 whole entry): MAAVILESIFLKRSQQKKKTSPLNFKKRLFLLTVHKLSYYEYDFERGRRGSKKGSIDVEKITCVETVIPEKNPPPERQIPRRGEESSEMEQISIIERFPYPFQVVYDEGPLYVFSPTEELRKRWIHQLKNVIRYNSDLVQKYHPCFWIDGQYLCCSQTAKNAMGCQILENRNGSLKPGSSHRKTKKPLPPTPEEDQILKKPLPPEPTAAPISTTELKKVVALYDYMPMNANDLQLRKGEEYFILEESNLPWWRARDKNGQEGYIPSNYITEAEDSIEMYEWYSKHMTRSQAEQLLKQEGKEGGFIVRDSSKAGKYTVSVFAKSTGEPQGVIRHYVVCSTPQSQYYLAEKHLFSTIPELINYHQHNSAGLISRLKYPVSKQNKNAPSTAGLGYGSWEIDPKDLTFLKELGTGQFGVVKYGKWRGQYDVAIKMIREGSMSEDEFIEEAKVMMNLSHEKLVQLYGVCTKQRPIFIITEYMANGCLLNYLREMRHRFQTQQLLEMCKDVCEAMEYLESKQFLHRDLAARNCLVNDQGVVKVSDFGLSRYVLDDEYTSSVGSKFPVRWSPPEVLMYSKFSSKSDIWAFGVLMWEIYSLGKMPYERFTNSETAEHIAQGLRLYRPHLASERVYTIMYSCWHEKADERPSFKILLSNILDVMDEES
Procedure: Spleen Homogenization: Spleens were harvested from mice, frozen immediately in liquid nitrogen and stored at −80° C. To generate spleen lysates, each spleen was sliced in half and lysed using a Precellys 24 Bead Homogenizer in 500 μL of BioRad Bio-Plex Lysis Buffer plus protease inhibitors. Supernatant was transferred to a fresh microfuge tube and stored frozen at −80° C. until analysis.
Btk Target Site Occupancy ELISA: An ELISA method for the detection of free uninhibited Btk in mouse, rat, dog, monkey, and human lysates was developed at Celgene Avilomics Research and a validation of this method in human B cell lysate was performed by a CLIA Certified laboratory (Cambridge Biomedical Laboratories, Boston, Mass.) The parameters that were assessed included: accuracy, linearity, dilution, precision (intra and inter-assay), stability, reference range, freeze-thaw cycles, reportable range, specificity, sensitivity, and carryover. […] Standards and samples were transferred to a streptavidin-coated 96-well ELISA plate and mixed while shaking for 1 h at room temperature. […] After wash, goat α-mouse-HRP (1:5000 dilution in PBS+0.05% Tween-20+0.5% BSA) was added and incubated for 1 h at room temperature. The ELISA was developed with addition of tetramethyl benzidine (TMB) followed by Stop Solution and read at OD 450 nm.
Established Collagen Induced Arthritis Model: Experiments were carried out at Bolder Biopath, Boulder, Colo. All experiments were carried out in compliance with regulations of the Institutional Animal Care and Use Committee and were conducted in accordance with principles and procedures dictated by the highest standards of humane animal care. Dba1 mice were injected at the base of the tail with 150 μL of Freund's Complete Adjuvant (Sigma) containing bovine type II collagen (Elastin Products, Owensville, Mo.) (2 mg/ml) on day 0 and again on day 21. […] Randomization into each group was done after swelling was obviously established in at least one paw, and attempts were made to assure approximately equal mean scores across the groups at the time of enrollment. […] Treatment continued daily (QD at 24 h intervals) through arthritis day 14. […] Clinical scores were assessed for each of the paws on study arthritis days 1-15 using the following scoring system: 0=normal, 1=one hind or fore paw joint affected or minimal diffuse erythema and swelling, 2=two hind or fore paw joints affected or mild diffuse erythema and swelling, 3=three hind or fore paw joints affected or moderate diffuse erythema and swelling, 4=marked diffuse erythema and swelling or =four digit joints affected, 5=severe diffuse erythema and severe swelling entire paw, unable to flex digits.

[2] = Clinical single dose study in healthy human volunteers, pharmacokinetics; type: in vivo; conditions: single oral 2 mg/kg
Procedure: Clinical Study: A double blind, placebo-controlled, ascending single dose, randomized study in normal healthy human volunteers was conducted at a single clinical research unit in accordance with Declaration of Helsinki principles. Informed consent statements were obtained from all subjects prior to inclusion in the study. Subjects were admitted to the unit 1 day before dosing and discharged 96 h after dosing.

Solubility = type: physicochemical
Environmental stability = type: physicochemical

C=CC(=O)Nc1cccc(Nc2nc(Nc3ccc(OCCOC)cc3)ncc2F)c1 [Compound 1 besylate, N-(3-(5-fluoro-2-(4-(2-methoxyethoxyl)phenylamino)pyrimidin-4-ylamino)phenyl)acrylamide besylate]
reduction of clinical signs of disease (inhibition of disease) ([1]; 3 mg/kg PO QD): 50% | reduction of clinical signs of disease (inhibition of disease) ([1]; 10 mg/kg PO QD): 85% | inhibition of histopathologic signs of disease (six joints) ([1]; 30 mg/kg): 96% | reduction of clinical signs of disease (inhibition of disease) ([1]; 30 mg/kg PO QD): 95% | body weight loss associated with severity of disease ([1]; all three dose levels (3, 10, 30 mg/kg)): prevented the loss in body weight | Btk occupancy in spleen (Btk; 30 mg/kg, 2 hours after last dose, besylate): 95% | drug-free Btk protein re-synthesized, % of pre-dose levels (Btk; 24 hours after a 10 mg/kg dose): approximately 60% | Btk occupancy in spleen (Btk; 24 hours after the 3 mg dose): 19% | Btk occupancy in spleen (Btk; 24 hours, dose level 10 mg): > 40% | Btk occupancy in spleen (Btk; 24 hours, dose level 30 mg): > 40% | receptor occupancy at 3 mg/kg (Btk; mouse, 3 mg/kg, 2 hours after last dose): 34% | receptor occupancy at 10 mg/kg (Btk; mouse, 10 mg/kg, 2 hours after last dose): 84% | receptor occupancy at 30 mg/kg (Btk; mouse, 30 mg/kg, 2 hours after last dose): 97% | Cmax ([2]; plasma, 6 subjects, read-out: mean maximum plasma concentration (Cmax)): 542 ng/mL | half-life ([2]; plasma, read-out: median terminal elimination half-life (converted)): 1.9 h | time to peak plasma concentrations [2]: 30 to 120 min | plasma concentrations at 48 hours post dose ([2]; all subjects): below the lower limit of quantification | plasma concentrations within 24 hours post dose ([2]; limit of detection 0.1 ng/mL): near or below the lower limit of detection | solubility (Solubility; aqueous solution, aqueous buffer, approximately pH 3.0, read-out: maximum aqueous solubility): 400 µg/mL | solubility (Solubility; ethanol, organic solvent or mixture, read-out: solubility in ethanol): ~10000 µg/mL | solubility (Solubility; water, read-out: solubility in water): ~160 µg/mL | environmental instabilities (heat, acid, base) (Environmental stability): no environmental instabilities
